From BindingDB's records for doi:10.1021/jm960128k (University of Illinois At Chicago, 1996)

Biological target: T1, Dimer of Gag-Pol polyprotein [489-587] (Human immunodeficiency virus 1, UniProt P12497)
T1 construct: 489-587
Test: Protease Inhibition Assay
Conditions: pH 5.5; 30 °C
Method: The IC50 values for the compounds were determined using purified HIV-1 Protease. Inhibition of the cleavage of the peptide H-Val-Ser-Gln-Asn-(L-beta-napthylalanine)-Pro-Ile-Val-OH was assessed at 30 °C, pH = 5.5 with [Enzyme] = 30 pM for 1 h, using HPLC with UV detection for quantification of the products. For the IC50 data a substrate concentration of 0.4 mg/mL was used, and data was fit to a four parameter sigmoidal equation.

CC(C)(C)NC(=O)[C@@H]1C[C@@H]2CCCC[C@@H]2CN1C[C@@H](O)[C@H](Cc1ccccc1)NC(=O)O[C@@H]1CO[C@@H]2CCO[C@@H]21 [(3R,3aS,6aR)-hexahydrofuro[3,2-b]furan-3-yl N-[(2S,3R)-4-[(3S,4aS,8aS)-3-(tert-butylcarbamoyl)-decahydroisoquinolin-2-yl]-3-hydroxy-1-phenylbutan-2-yl]carbamate]
IC50: > 3 µM
